# Like-named read-outs stand apart in the source and are kept apart here.
# How the values were obtained:
# S. aureus [1] = settings: worldwide surveillance studies; cited from earlier work
# K. pneumoniae = assay: MIC with/without bovine pulmonary surfactant, K. pneumoniae; assay type: cell-based, Klebsiella pneumoniae; settings: for MIC: Klebsiella pneumoniae
# Protocol: (§1) Clinical isolates were identified by the submitting laboratories and confirmed by JMI Laboratories using standard bacteriologic algorithms and methodologies, including Matrix-Assisted Laser Desorption Ionization-Time Of Flight Mass Spectrometry (MALDI-TOF MS). When necessary, MALDI-TOF MS was performed using the Bruker Daltonics MALDI Biotyper (Billerica, Mass., USA), following manufacturer's instructions. Isolates selected were bacterial species commonly associated with pneumonia. […] 2.2 Susceptibility testing
# (§2) Antibacterial susceptibility testing was measured by JMI Labs (North Liberty, Iowa, USA). […] These clinical isolates were collected from US (n=4), Mexico (n=2), and Italy (n=1). Susceptibility testing was performed by broth microdilution in accordance with the Clinical and Laboratory and Standards Institute (CLSI) guidelines M07-A10 (2015) and the standard operating procedures at JMI laboratories. Minimum inhibitory concentrations (MICs) were based on CLSI criteria (2015). There are no published breakpoints for iclaprim. E. coli, K. pneumoniae, M. catarrhalis, E. faecalis, and S. aureus were tested in cation-adjusted Mueller-Hinton broth (CA-MHB). S. pneumoniae were tested in CA-MHB supplemented with 2.5-5% lysed horse blood, and H. influenza were tested in Haemophilus test medium. Quality control and interpretation of results were performed in accordance with CLSI M100-S26 (2016) methods. QC ranges for iclaprim were those approved by CLSI and published in M100-S26 (2016). Iclaprim and comparator antibiotic MIC results were within the CLSI published ranges against E. coli ATCC 25922, E. faecalis ATCC 29212, E. faecalis ATCC 33186, H. influenzae ATCC 49247, K. pneumoniae ATCC 700603 (ESBL phenotype), S. aureus ATCC 29213, and S. pneumoniae ATCC 49619. Isolates were tested with MIC panels (ThermoFisher Scientific, Cleveland, Ohio, USA) of comparator antibiotics (daptomycin and levofloxacin).
# (§3) Because bovine pulmonary surfactant can introduce cloudiness to the MIC testing media, antimicrobial growth inhibition was also evaluated using the colorimetric metabolic indicator resazurin (Camlab Ltd., Cambridge, UK). […] S. pneumoniae panels were omitted from resazurin analysis because the color change was obscured by the lysed horse blood present in the test medium. Growth inhibition was then evaluated as a visible color change from blue (no growth) to pink (robust growth) and recorded as a MICRZ value.
# (§4) The MICs of iclaprim, levofloxacin, and daptomycin were determined against Gram-positive and Gram-negative isolates.
# (§5) A new vial of bovine pulmonary surfactant (BPS; Survanta®; Abbott Laboratories, Columbus, Ohio) was utilized for each independent experiment. Each vial was mixed thoroughly and a 100 μL aliquot was spread on an agar plate, which was incubated overnight to confirm sterility. […] The concentration of surfactant was expressed in terms of percent volume of Survanta® suspension, which consisted of phospholipid (25 mg/mL) and surfactant proteins (<1 mg/mL) in 0.9% sodium chloride solution (Goerke, 1998). MICs of daptomycin were determined in CAMHB with the Ca^2+ content adjusted to 50 mg/L.
# [2] = tested on: isolated rabbit Purkinje fibers
# H. influenzae = assay: MIC with/without bovine pulmonary surfactant, H. influenzae; assay type: cell-based, Haemophilus influenzae; settings: for MIC: Haemophilus influenzae
# Protocol: as §1, §2, §3, §4, §5
# E. coli = assay: MIC with/without bovine pulmonary surfactant, E. coli; assay type: cell-based, Escherichia coli; settings: E. coli ATCC 25922
# Protocol: as §1, §2, §3, §4
# A new vial of bovine pulmonary surfactant (BPS; Survanta®; Abbott Laboratories, Columbus, Ohio) was utilized for each independent experiment. […] MICs of daptomycin were determined in CAMHB with the Ca^2+ content adjusted to 50 mg/L.
# [3] = tested on: common Gram-positive and Gram-negative respiratory bacteria; assay: Pulmonary surfactant interaction, overall effect on MIC and MICRZ; assay type: cell-based; settings: 2.5% (v/v) BPS, all tested strains or isolates
# Protocol: Antibacterial susceptibility testing was measured by JMI Labs (North Liberty, Iowa, USA). […] These clinical isolates were collected from US (n=4), Mexico (n=2), and Italy (n=1). Susceptibility testing was performed by broth microdilution in accordance with the Clinical and Laboratory and Standards Institute (CLSI) guidelines M07-A10 (2015) and the standard operating procedures at JMI laboratories. Minimum inhibitory concentrations (MICs) were based on CLSI criteria (2015). There are no published breakpoints for iclaprim. E. coli, K. pneumoniae, M. catarrhalis, E. faecalis, and S. aureus were tested in cation-adjusted Mueller-Hinton broth (CA-MHB). […]
# Because bovine pulmonary surfactant can introduce cloudiness to the MIC testing media, antimicrobial growth inhibition was also evaluated using the colorimetric metabolic indicator resazurin (Camlab Ltd., Cambridge, UK). […] Growth inhibition was then evaluated as a visible color change from blue (no growth) to pink (robust growth) and recorded as a MICRZ value.
# as §4
# A new vial of bovine pulmonary surfactant (BPS; Survanta®; Abbott Laboratories, Columbus, Ohio) was utilized for each independent experiment. […] MICs of daptomycin were determined in CAMHB with the Ca^2+ content adjusted to 50 mg/L. […]
# E. faecalis = assay: MIC with/without bovine pulmonary surfactant, E. faecalis; assay type: cell-based, Enterococcus faecalis; settings: for MICRZ, Resazurin: +BPS: 2.5% v/v BPS; for MICRZ, Resazurin: no BPS
# Protocol: as §1, §2, §3, §4, §5
# S. aureus [4] = assay: MIC with/without bovine pulmonary surfactant, S. aureus; assay type: cell-based, Staphylococcus aureus; settings: for MICRZ, Resazurin: +BPS: 2.5% v/v BPS; for MICRZ, Resazurin: no BPS
# Protocol: as §1, §2, §3, §4, §5
# [5] = tested on: nosocomial pneumonia suspected or confirmed to be caused by Gram-positive pathogens; settings: cited from earlier work; for cure rate: intent-to-treat, test of cure visit
# M. catarrhalis = assay: MIC with/without bovine pulmonary surfactant, M. catarrhalis; assay type: cell-based, Moraxella catarrhalis; settings: for MICRZ, Resazurin: +BPS: 2.5% v/v BPS
# Protocol: as §1, §2, §3, §4, §5
# S. pneumoniae = assay: MIC with/without bovine pulmonary surfactant, S. pneumoniae; assay type: cell-based; settings: Streptococcus pneumoniae
# Protocol: as §1, §2, §3, §4, §5
# [6] = tested on: methicillin-resistant Staphylococcus aureus (MRSA) isolates; assay: Broth microdilution MIC against MRSA nonsusceptible to daptomycin, linezolid or vancomycin; assay type: cell-based
# Protocol: Antibacterial susceptibility testing was conducted on a range of MRSA strains and isolates with varying susceptibilities to several recognized antistaphylococcal antibiotics. Susceptibility testing was performed by broth microdilution in accordance with the Clinical and Laboratory and Standards Institute (CLSI) guidelines. Minimum inhibitory concentrations (MICs) were based on CLSI criteria.
# [7] = S. aureus Clinical Isolate 825189
smiles,measurement,setting,value
COc1cc(Cc2cnc(N)nc2N)c2c(c1OC)OC(C1CC1)C=C2 (racemic) [Iclaprim],MIC90 of S. aureus,S. aureus [1],0.12 mg/L
same,"MICRZ, Resazurin: +BPS","K. pneumoniae; K. pneumoniae ATCC 700603, 2.5% v/v BPS",4 µg/mL
same,"MICRZ, Resazurin","K. pneumoniae; K. pneumoniae ATCC 700603, no BPS",4 µg/mL
same,"MICRZ, Resazurin: +BPS","K. pneumoniae; K. pneumoniae Clinical Isolate 858055, 2.5% v/v BPS",2 µg/mL
same,"MICRZ, Resazurin","K. pneumoniae; K. pneumoniae Clinical Isolate 858055, no BPS",2 µg/mL
same,MIC,"K. pneumoniae; ATCC700603, K. pneumoniae ATCC 700603, 2.5% v/v BPS, read-out: MIC, CLSI: +BPS",4 mg/L
same,MIC,"K. pneumoniae; ATCC700603, K. pneumoniae ATCC 700603, no BPS, read-out: MIC, CLSI",4 mg/L
same,MIC,"K. pneumoniae; K. pneumoniae Clinical Isolate 858055, 2.5% v/v BPS, read-out: MIC, CLSI: +BPS",2 mg/L
same,MIC,"K. pneumoniae; K. pneumoniae Clinical Isolate 858055, no BPS, read-out: MIC, CLSI",2 mg/L
same,iclaprim concentrations at which action potential duration was increased,[2],above 1 μM
same,"MICRZ, Resazurin: +BPS","H. influenzae; H. influenzae ATCC 49247, 2.5% v/v BPS",0.25 µg/mL
same,"MICRZ, Resazurin","H. influenzae; H. influenzae ATCC 49247, no BPS",0.25 µg/mL
same,"MICRZ, Resazurin: +BPS","H. influenzae; H. influenzae Clinical Isolate 824704, 2.5% v/v BPS",0.06 µg/mL
same,"MICRZ, Resazurin","H. influenzae; H. influenzae Clinical Isolate 824704, no BPS",0.06 µg/mL
same,MIC,"H. influenzae; ATCC49247, H. influenzae ATCC 49247, 2.5% v/v BPS, read-out: MIC, CLSI: +BPS",0.12 mg/L
same,MIC,"H. influenzae; ATCC49247, H. influenzae ATCC 49247, no BPS, read-out: MIC, CLSI",0.12 mg/L
same,MIC,"H. influenzae; H. influenzae Clinical Isolate 824704, 2.5% v/v BPS, read-out: MIC, CLSI: +BPS",0.06 mg/L
same,MIC,"H. influenzae; H. influenzae Clinical Isolate 824704, no BPS, read-out: MIC, CLSI",0.06 mg/L
same,"MICRZ, Resazurin: +BPS",E. coli; 2.5% v/v BPS,1 µg/mL
same,"MICRZ, Resazurin",E. coli; no BPS,1 µg/mL
same,effect of BPS on the MIC and MICRZ values,[3],minimal or no effect
same,"MICRZ, Resazurin: +BPS",E. faecalis; E. faecalis ATCC 29212,<=0.015 μg/mL
same,"MICRZ, Resazurin",E. faecalis; E. faecalis ATCC 29212,<=0.015 μg/mL
same,"MICRZ, Resazurin: +BPS",E. faecalis; E. faecalis ATCC 33186,<=0.015 μg/mL
same,"MICRZ, Resazurin",E. faecalis; E. faecalis ATCC 33186,0.03 µg/mL
same,"MICRZ, Resazurin: +BPS",S. aureus [4]; S. aureus ATCC 29213,0.06 µg/mL
same,"MICRZ, Resazurin",S. aureus [4]; S. aureus ATCC 29213,0.06 µg/mL
same,"MICRZ, Resazurin: +BPS",S. aureus [4]; [7],0.12 µg/mL
same,"MICRZ, Resazurin",S. aureus [4]; [7],0.06 µg/mL
same,death rate within 28 days of the start of treatment,[5]; iclaprim q12h,8.7%
same,cure rate,[5]; iclaprim 0.8 mg/kg IV q12h,73.9%
same,cure rate,[5]; iclaprim 1.6 mg/kg IV q8h,62.5%
same,"MICRZ, Resazurin: +BPS",M. catarrhalis; M. catarrhalis Clinical Isolate 893806,8 µg/mL
same,"MICRZ, Resazurin","M. catarrhalis; M. catarrhalis Clinical Isolate 893806, no BPS",4 µg/mL
same,"MICRZ, Resazurin: +BPS",M. catarrhalis; M. catarrhalis Clinical Isolate 893807,4 µg/mL
same,"MICRZ, Resazurin","M. catarrhalis; M. catarrhalis Clinical Isolate 893807, no BPS",4 µg/mL
same,MIC,"M. catarrhalis; Moraxella catarrhalis, M. catarrhalis Clinical Isolate 893806, no BPS",4 mg/L
same,MIC,"S. pneumoniae; ATCC49619, S. pneumoniae ATCC 49619, 2.5% v/v BPS, read-out: MIC, CLSI: +BPS",0.06 mg/L
same,MIC,"S. pneumoniae; ATCC49619, S. pneumoniae ATCC 49619, no BPS, read-out: MIC, CLSI",0.06 mg/L
same,MIC,"S. pneumoniae; S. pneumoniae Clinical Isolate 818757, 2.5% v/v BPS, read-out: MIC, CLSI: +BPS",0.06 mg/L
same,MIC,"S. pneumoniae; S. pneumoniae Clinical Isolate 818757, no BPS, read-out: MIC, CLSI",0.06 mg/L
same,MIC,"S. pneumoniae; S. pneumoniae Clinical Isolate 825175, 2.5% v/v BPS, read-out: MIC, CLSI: +BPS",0.12 mg/L
same,MIC,"S. pneumoniae; S. pneumoniae Clinical Isolate 825175, no BPS, read-out: MIC, CLSI",0.12 mg/L
same,MIC,"[6]; Staphylococcus aureus, MRSA, read-out: MIC to the majority of MRSA isolates",≤ 1 mg/L
same,MIC50,"[6]; Staphylococcus aureus, 59 MRSA isolates",0.25 mg/L
same,MRSA isolates with iclaprim MIC ≤1 μg/ml,[6]; isolates nonsusceptible to linezolid (25 of 25),100%
same,"isolates with reduced susceptibility, MICs >8 μg/mL",[6]; nine of 59 MRSA isolates,15.2%

# From US10080751B2, “Systems and methods for treating bacterial infection” (priority 2016, dated 2018)
